Test results as given in US6251882A, “Alkyl ketones as potent anti-cancer agents” (Parker Hughes Institute, priority 1999, dated 2001).
Structures can show the parent of a compound that is named as a salt. Residues, ends and D or L forms follow the SMILES beside them. *: point of attachment. Farnesyl = CC(C)=CCC/C(C)=C/CC/C(C)=C/C*; Boc = CC(C)(C)OC(=O)*; CH2Cl = ClC*

Legend:
BT-20 (breast cancer) = assay: MTT cytotoxicity assay, BT-20; type: cell-based; conditions: Homo sapiens, 24-36 hours at 37° C., 0.1 to 250 μM
Protocol: (§1) Cytotoxicity of various compounds against tumor cells was performed using the MTT (3-[4,5-[…]]-2,5-diphenyl tetrazolium bromide) assay (Boehringer Mannheim Corp., Indianapolis, Ind.). Unless otherwise specified, all cell lines were obtained from the American Type Culture Collection (ATCC). Briefly, exponentially growing cells were seeded into a 96-well plate at a density of 2.5×10^4 cells/well and incubated for 36 hours at 37° C. prior to drug exposure. On the day of treatment, culture medium was carefully aspirated from the wells and replaced with fresh medium containing the indicated compound at concentrations ranging from 0.1 to 250 μM. Triplicate wells were used for each treatment.
(§2) Human leukemic cell lines (NALM-6, MOLT-3) glioblastoma cells (U373) and human breast tumor cell lines (BT20 and MDA-MB-231) were obtained from the American Type Culture Collection and maintained as a continuous cell line in Dulbecco's modified Eagles's medium supplemented with 10% fetal bovine serum and antibiotics.
(§3) The cells were incubated with the various compounds for 24-36 hours at 37° C. in a humidified 5% CO2 atmosphere. To each well, 10 μl of MTT (0.5 mg/ml final concentration) was added and the plates were incubated at 37° C. for 4 hours to allow MTT to form formazan crystals by reacting with metabolically active cells. The formazan crystals were solubilized overnight at 37° C. in a solution containing 10% SDS in 0.01 M HCl. The absorbence of each well was measured in a microplate reader (Labsystems) at 540 nm and a reference wavelength of […]. To translate the OD540 values into the number of live cells in each well, the OD540 values were compared to those on standard OD540 --versus--cell number curves generated for each cell line. The percent survival was calculated using the formula: [formula]
(§4) The IC50 values were calculated by non-linear regression analysis and are shown below in Tables 1-6.

PC-3 (prostate cancer) = assay: MTT cytotoxicity assay, PC-3; type: cell-based; conditions: 24-36 hours at 37° C., 0.1 to 250 μM
Protocol: as §1, §3, §4

U-373 (glioblastoma) = assay: MTT cytotoxicity assay, U-373; type: cell-based; conditions: Homo sapiens, U373 MG, 24-36 hours at 37° C., 0.1 to 250 μM
Protocol: as §1, §2, §3, §4

Molt-3 (T-lineage ALL) = assay: MTT cytotoxicity assay, Molt-3; type: cell-based, human; conditions: Homo sapiens, MOLT-3, MTT, 24-36 hours at 37° C., 0.1 to 250 μM
Protocol: as §1, §2, §3, §4

Nalm-6 (B-lineage ALL) = assay: MTT cytotoxicity assay, Nalm-6; type: cell-based; conditions: Homo sapiens, 24-36 hours at 37° C., 0.1 to 250 μM
Protocol: as §1, §2, §3, §4

Row | Structure (SMILES) | IC50 (BT-20 (breast cancer)) [µM] | IC50 (PC-3 (prostate cancer)) [µM] | IC50 (U-373 (glioblastoma)) [µM] | IC50 (Molt-3 (T-lineage ALL)) [µM] | IC50 (Nalm-6 (B-lineage ALL)) [µM]
1 | CC(C)=CCC/C(C)=C/CC/C(C)=C/CSC[C@H](NC(=O)OC(C)(C)C)C(=O)C=[N+]=[N-] [HI-82, N-Boc-S-farnesyl-Cys diazomethyl ketone] | > 100 | > 100 | > 100 | 50.1 | 49.8
2 | CC(C)=CCC/C(C)=C/CC/C(C)=C/CSCCC(=O)C=[N+]=[N-] [HI-83, S-trans-trans-Farnesyl-mercaptoethyl diazomethyl ketone] | > 100 | > 100 | > 100 | 6.8 | 53.5
3 | CC(C)=CCC/C(C)=C/CC/C(C)=C/CSCC(=O)C=[N+]=[N-] [HI-84, S-trans-trans-Farnesyl-mercaptomethyl diazomethyl ketone] | > 100 | > 100 | > 100 | 60.3 | > 100
4 | CC(=O)N[C@@H](CSC/C=C(\C)CCC=C(C)C)C(=O)C=[N+]=[N-] [HI-122, N-Ac-S-trans-geranyl-Cys diazomethyl ketone] | > 100 | > 100 | > 100 | > 100 | > 100
5 | CC(=O)N[C@@H](CSCC=C(C)C)C(=O)C=[N+]=[N-] [HI-123, N-Ac-S-(3-methyl-2-butenyl)-Cys diazomethyl ketone] | > 100 | > 100 | > 100 | > 100 | > 100
6 | CC(C)=CCC/C(C)=C/CC/C(C)=C/CSC[C@H](NC(=O)OC(C)(C)C)C(=O)CCl [HI-124, N-Boc-S-farnesyl-Cys chloromethyl ketone] | > 100 | > 100 | > 100 | 7.7 | 10.7
7 | CC(C)=CCC/C(C)=C/CC/C(C)=C/CSCCC(=O)CCl [HI-125, S-trans-trans-Farnesyl-2-mercaptoethyl chloromethyl ketone] | > 100 | > 100 | > 100 | 35.5 | 40.7
8 | CC(C)=CCC/C(C)=C/CC/C(C)=C/CSCC(=O)CCl [HI-126, S-trans-trans-Farnesyl-mercaptomethyl chloromethyl ketone] | > 100 | > 100 | > 100 | > 100 | 84.3
9 | CC(=O)N[C@@H](CSC/C=C(\C)CCC=C(C)C)C(=O)CCl [HI-127, N-Ac-S-trans-geranyl-Cys chloromethyl ketone] | > 100 | > 100 | > 100 | > 100 | > 100
10 | CC(=O)N[C@@H](CSCC=C(C)C)C(=O)CCl [HI-128, N-Ac-S-(3-methyl-2-butenyl)-Cys chloromethyl ketone] | 25.7 | 47.8 | > 100 | 7.9 | 12.6
11 | CCCCCCCCCCCCSC[C@H](NC(=O)OC(C)(C)C)C(=O)CCl [HI-129, N-Boc-S-dodecyl-Cys chloromethyl ketone] | 48.9 | 64.6 | > 100 | 15.5 | 15.1
12 | CC(C)=CCC/C(C)=C/CC/C(C)=C/CSC[C@H](NC(=O)CNC(=O)OC(C)(C)C)C(=O)CCl [HI-130, N-Boc-Gly-S-trans-trans-farnesyl-Cys chloromethyl ketone] (Boc-Gly-Cys(Farnesyl)-CH2Cl) | > 100 | > 100 | 71.3 | 17.5 | 12.9
13 | CCCCCCCCCCCCSC[C@H](N)C(=O)CCl [HI-252, S-Dodecyl-Cys chloromethyl ketone hydrochloride] | > 100 | > 100 | > 100 | 12.5 | 17.7
14 | CCCCCCCCCCCCOC[C@H](NC(=O)OC(C)(C)C)C(=O)CCl [HI-266, N-Boc-O-dodecyl serine chloromethyl ketone] | 49.9 |  | 37.1 |  | 64.5
15 | CCCCCCCCCCCCSC[C@H](NC(C)=O)C(=O)N(C)OC [HI-267, N-Ac-S-dodecyl-Cys-N(OCH3)-CH3] | > 100 | > 100 | > 100 |  | 50.1
16 | CCCCCCCCCCCCSC[C@H](NC(=O)c1cccc(N(C)C)c1)C(=O)CCl [HI-268, N-3-Dimethylaminobenzoyl-S-dodecyl-cysteine chloromethyl ketone] | > 100 | > 100 | > 100 |  | 96.1
17 | CCCCCCCCCCCCSC[C@H](NC(C)=O)C(=O)CSc1ccccc1 [HI-269, N-Ac-S-dodecyl-Cys-CH2 -SPh] | > 100 | > 100 | > 100 | > 100 | > 100
18 | CCCCCCCCCCCCSC[C@H](NC(C)=O)C(=O)CSCCC(=O)O [HI-273, N-Ac-S-dodecyl-Cys-CH2 -S-CH2 CH2 CO2 H] | 20.1 | > 100 | > 100 | 50.3 | 44.4
19 | CCCCCCCCCCCCSC[C@@H](C=O)NC(C)=O [HI-274, N-Ac-S-dodecyl-Cys-H] | 22.8 |  | > 100 | 13.1 | 12.6
20 | CCCCCCCCCCCCSC[C@H](NC(C)=O)C(=O)CSc1ccc2ccccc2c1 [HI-302, N-Ac-S-dodecyl-Cys-CH2 -S-2-naphthyl] | > 100 | > 100 | > 100 | > 100 | > 100
21 | CCCCCCCCCCCCSC[C@H](NC(=O)OCC)C(=O)CCl [HI-319] | > 100 | > 100 | > 100 | 84.2 | 77.6
22 | CCCCCCCCCCCCSC[C@H](NC(=O)OCc1ccccc1)C(=O)CCl [HI-320, N-Benzyloxycarbonyl-S-dodecylcysteine chloromethyl ketone] | > 100 | > 100 | > 100 | > 100 | 13.5
23 | CCCCCCCCCCCCSC[C@H](NC(C)=O)C(=O)C=[N+]=[N-] [HI-348, N-Ac-S-dodecyl-Cys diazomethyl ketone] | 97.9 | > 100 | > 100 | 22.9 | 15.4
24 | CC(=O)N[C@@H](CSC(C)(C)C)C(=O)CCl [HI-349, N-Ac-S-t-butyl-cysteine chloromethyl ketone] | > 100 | > 100 | > 100 | 71.9 | 71
25 | CC(=O)N[C@@H](CSC(c1ccccc1)(c1ccccc1)c1ccccc1)C(=O)CCl [HI-350, N-Ac-S-trityl-cysteine chloromethyl ketone] | 88.8 | 52.2 | 87.1 | 26.4 | 10
26 | COc1ccc(CSC[C@H](NC(C)=O)C(=O)CCl)cc1 [HI-351, N-Ac-S-4-methoxybenzyl-cysteine chloromethyl ketone] | 73.1 | 43.8 | 45.6 | 4.75 | 60.2
27 | CCCCCCCCCCCCSC[C@H](NC(C)=O)C(=O)CSC(c1ccccc1)(c1ccccc1)c1ccccc1 [HI-365] | > 100 | > 100 | > 100 | 97.3 | 93.1
